Data: US9862711B2, “Pyrazine derivatives as phosphatidylinositol 3-kinase inhibitors” (NOVARTIS AG, priority 2014, dated 2018)

biological target: Vps34 (Homo sapiens (Human), UniProt Q8NEB9); assay: Kinase Glo Luminescent Kinase Assay (Assay C); assay type: biochemical; conditions: 1 μM ATP
Excerpt: Kinase Glo Luminescent Kinase Assay (Kglo) for PI 3-Kinase Alpha (A), Pb 3-Kinase Beta (B), Vps34 (C), PI 4-Kinase Beta (D)
The luminescence-based ATP detection reagent KinaseGlo was obtained from Promega, (Cat. No. V6714, Lot No. 236161) through Catalys, Wallisellen, Switzerland. L-alpha-phosphatidylinositol (PI, liver, bovine) was obtained from Avanti Polar Lipid (Cat. No. 840042C, Lot#LPI-274), Phosphatidylinositol-4,5-bisphosphate (PIP(4,5)2) was also obtained from Avanti Polar Lipid (Cat. No. 840046X). L-α-Phosphatidylserine (PS) was obtained from Avanti Polar Lipid (Cat. No. 840032C), n-Octylglucoside from Avanti Polar Lipid (Cat. No. 10634425001). Luminescence is a well established readout to determine ATP concentrations and can thus be used to follow the activity of many kinases regardless of their substrate. The Kinase Glo Luminescent Kinase Assay (Promega, Madison/WI, USA) is a homogeneous HTS method of measuring kinase activity by quantifying the amount of ATP remaining in solution following a kinase reaction.
50 nL of compound dilutions were dispensed onto black 384-well low volume Non Binding Styrene (NBS) plates (Costar Cat. No. NBS#3676). L-α-phosphatidylinositol (PI), provided as 10 mg/ml solution in methanol, was transferred into a glass tube and dried under a nitrogen beam. It was then resuspended in 3% OctylGlucoside (1-O-n-octyl-beta-D-glucopyranoside) by vortexing and stored at 4° C. 5 μL of a mix of PI/OctylGlucoside with the PI 3-kinase alpha and PI 3-kinase beta subtypes, or Vps34 or PI 4-kinase beta were added. Kinase reactions were started by the addition of 5 μl of an ATP-mix containing in a final volume 10 μL 10 mM TRIS-HCl pH 7.5, 3 mM MgCl2, 50 mM NaCl, 0.05% CHAPS, 1 mM DTT and 1 μM ATP at room temperature. Reactions were stopped with 10 μl of KinaseGlo and plates were read 10 mins later in a Synergy2 reader using an integration time of 0.1 seconds per well. 2.5 μM of NVP-BGT226 (1-(3-(trifluoromethyl)-4-(piperazin-1-yl)phenyl)-8-(6-methoxypyridin-3-yl)-3-methyl-1H-imidazo[4,5-c]quinolin-2(3H)-one) was added to the assay plates to generate the 100% inhibition of the kinase reaction, and the 0% inhibition was given by the solvent vehicle (90% DMSO in water). (1-(3-(trifluoromethyl)-4-(piperazin-1-yl)phenyl)-8-(6-methoxypyridin-3-yl)-3-methyl-1H-imidazo[4,5-c]quinolin-2(3H)-one) was used as a reference compound and included in all assay plates in the form of 16 dilution points in duplicate.
IC50 values of the percentage inhibition of each compound at 8 concentrations (10, 3.0, 1.0, 0.3, 0.1, 0.030, 0.010 and 0.003 μM) n=2 were derived by fitting a sigmoidal dose-response curve to a plot of assay readout over inhibitor concentration as described. All fits were performed with the program XLfit4 (ID Business Solutions, Guildford, UK).

Sequence of Vps34 (Q8NEB9 whole entry, species assumed): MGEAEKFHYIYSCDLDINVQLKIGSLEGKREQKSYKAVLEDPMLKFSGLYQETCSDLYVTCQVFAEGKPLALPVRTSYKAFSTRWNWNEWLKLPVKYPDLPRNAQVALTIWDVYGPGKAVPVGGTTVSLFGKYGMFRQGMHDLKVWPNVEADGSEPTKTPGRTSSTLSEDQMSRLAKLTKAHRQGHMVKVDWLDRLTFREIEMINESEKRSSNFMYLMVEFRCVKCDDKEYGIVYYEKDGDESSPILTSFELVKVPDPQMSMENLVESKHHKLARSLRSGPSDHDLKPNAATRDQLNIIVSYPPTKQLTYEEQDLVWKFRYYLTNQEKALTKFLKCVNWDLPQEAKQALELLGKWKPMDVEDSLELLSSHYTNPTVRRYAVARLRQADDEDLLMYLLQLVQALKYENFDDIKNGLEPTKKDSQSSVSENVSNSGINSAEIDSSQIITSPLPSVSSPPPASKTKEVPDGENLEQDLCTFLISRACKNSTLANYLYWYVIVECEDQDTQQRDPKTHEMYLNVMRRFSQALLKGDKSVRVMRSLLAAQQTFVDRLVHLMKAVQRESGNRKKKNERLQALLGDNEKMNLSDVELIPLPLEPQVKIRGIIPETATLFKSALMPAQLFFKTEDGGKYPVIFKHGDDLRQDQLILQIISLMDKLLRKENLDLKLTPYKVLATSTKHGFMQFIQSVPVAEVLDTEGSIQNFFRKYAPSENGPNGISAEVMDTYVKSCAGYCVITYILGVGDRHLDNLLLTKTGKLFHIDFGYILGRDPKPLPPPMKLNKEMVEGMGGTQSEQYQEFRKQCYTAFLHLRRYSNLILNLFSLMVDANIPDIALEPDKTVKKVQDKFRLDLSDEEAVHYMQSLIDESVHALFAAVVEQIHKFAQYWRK

IC50	Compound
> 9.1 µM	Cc1ccc(S(=O)(=O)NCCC(C)(C)O)cc1-c1cncc(-c2cnn(CCN3CCOCC3)c2)n1 [Example 9, N-(3-Hydroxy-3-methyl-butyl)-4-methyl-3-{6-[1-(2-morpholin-4-yl-ethyl)-1H-pyrazol-4-yl]-pyrazin-2-yl}-benzenesulfonamide]
> 10 µM	Cc1ccc(S(=O)(=O)NCCC(C)(C)O)cc1-c1cncc(-c2cn(CCN3CCOCC3)nc2C)n1 [Example 10, N-(3-Hydroxy-3-methyl-butyl)-4-methyl-3-{6-[3-methyl-1-(2-morpholin-4-yl-ethyl)-1H-pyrazol-4-yl]-pyrazin-2-yl}-benzenesulfonamide]
3.08 µM	Cc1ccc(S(=O)(=O)N[C@H]2CC[C@H](O)CC2)cc1-c1cncc(-c2cccnc2)n1 [Example 11, Trans N-(4-Hydroxy-cyclohexyl)-4-methyl-3-(6-pyridin-3-yl-pyrazin-2-yl)-benzenesulfonamide]

More lines, now with the values behind:

Compound	IC50
Cc1ncc(-c2cncc(-c3cc(S(=O)(=O)NCCCO)ccc3C)n2)s1 [Example 1, N-(3-Hydroxy-propyl)-4-methyl-3-[6-(2-methyl-thiazol-5-yl)-pyrazin-2-yl]-benzenesulfonamide]	3.07 µM
Cc1ccc(S(=O)(=O)NCC(C)(C)O)cc1-c1cncc(-c2cn(C)nc2C)n1 [Example 2, 3-[6-(1,3-Dimethyl-1H-pyrazol-4-yl)-pyrazin-2-yl]-N-(2-hydroxy-2-methyl-propyl)-4-methyl-benzenesulfonamide]	3.45 µM
Cc1ccc(S(=O)(=O)NCCC(C)(C)O)cc1-c1cncc(-c2cn(C)nc2C)n1 [Example 3, 3-[6-(1,3-Dimethyl-1H-pyrazol-4-yl)-pyrazin-2-yl]-N-(3-hydroxy-3-methyl-butyl)-4-methyl-benzenesulfonamide]	5.3 µM
Cc1ccc(S(=O)(=O)NCC2(C)COC2)cc1-c1cncc(-c2cn(C)nc2C)n1 [Example 4, Trans 3-[6-(1,3-Dimethyl-1H-pyrazol-4-yl)-pyrazin-2-yl]-4-methyl-N-(3-methyl-oxetan-3-ylmethyl)-benzenesulfonamide]	4.3 µM
Cc1ncc(-c2cncc(-c3cc(S(=O)(=O)N[C@H]4CC[C@H](O)CC4)ccc3C)n2)s1 [Example 5, Trans N-(4-Hydroxycyclohexyl)-4-methyl-3-(6-(2-methylthiazol-5-yl)pyrazin-2-yl)benzenesulfonamide]	1.81 µM
Cc1ccc(S(=O)(=O)NCC(C)(C)CO)cc1-c1cncc(-c2cn(C)nc2C)n1 [Example 8, 3-[6-(1,3-Dimethyl-1H-pyrazol-4-yl)-pyrazin-2-yl]-N-(3-hydroxy-2,2-dimethyl-propyl)-4-methyl-benzenesulfonamide]	4.4 µM
